Holding throughout (assay type): cell-based
Holding throughout (conditions): HeLa stable transfectants; for Kd: Schild regression vs reference antagonist, read-out: Kdapp; for AC50: concentration that gives 50% of the activity

One test addresses T1, RAR alpha (Homo sapiens, UniProt P10276).
T1 sequence (P10276 183-417 limits assumed): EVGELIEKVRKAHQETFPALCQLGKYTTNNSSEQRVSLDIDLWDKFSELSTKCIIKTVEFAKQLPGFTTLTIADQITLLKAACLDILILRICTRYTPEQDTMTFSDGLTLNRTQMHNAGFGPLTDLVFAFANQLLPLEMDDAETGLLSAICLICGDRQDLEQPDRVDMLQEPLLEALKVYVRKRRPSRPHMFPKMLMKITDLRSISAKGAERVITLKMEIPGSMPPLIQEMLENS
As to the kind of experiment: Transactivation test, HeLa reporter cells (luciferase), RAR alpha. As to the method:
(§1) The activation of receptors with an agonist (activator) in HeLa cells leads to the expression of a reporter gene, luciferase, which, in the presence of a substrate, generates light. The activation of the receptors may thus be measured by quantifying the luminescence produced after incubating the cells in the presence of a reference antagonist. The activating products displace the antagonist from its site, thus allowing activation of the receptor. The activity is measured by quantifying the increase in light produced. This measurement makes it possible to determine the activating activity of the compounds according to the invention.
(§2) Determination of the Kdapp:
(§3) In this study, a constant is determined which is the affinity of the molecule for the receptor. Since this value can fluctuate depending on the basal activity and the expression of the receptor, it is referred to as the Kdapparent (KdApp).
(§4) To determine this constant, the cells are brought into contact with a concentration of the test product and a concentration of the reference antagonist, 4-(5,5-dimethyl-8-p-tolyl-5,6-dihydronaphth-2-ylethynyl)benzoic acid. Measurements are also taken for the total agonist (4-[2-(5,5,8,8-tetramethyl-5,6,7,8-tetrahydronaphth-2-yl)propenyl]benzoic acid) and inverse agonist, 4-{(E)-3-[4-(4-tert-butylphenyl)-5,5,8,8-tetramethyl-5,6,7,8-tetrahydro-2-naphthyl]-3-oxopropenyl}benzoic acid, controls.
(§5) These crossed curves make it possible to determine the AC50 values (concentration at which 50% activation is observed) for the reference ligand at various concentrations of test product. These AC50 values are used to calculate the Schild regression by plotting a straight line corresponding to the Schild equation (“quantitation in receptor pharmacology” Terry P. Kenakin, Receptors and Channels, 2001, 7, 371-385).
(§6) In the case of an agonist, an AC50 value (concentration that gives 50% of the activity) is calculated by plotting the curve of the product at the concentration of the reference ligand that gives 80% activation.
(§7) The HeLa cell lines used are stable transfectants containing the plasmids ERE-βGlob-Luc-SV-Neo (reporter gene) and RAR (α, β, γ) ER-DBD-puro. These cells are inoculated into 96-well plates at a rate of 10,000 cells per well in 100 μl of DMEM medium without phenol red, and supplemented with 10% defatted calf serum. The plates are then incubated at 37° C. and 7% CO2 for 4 hours.
(§8) The various dilutions of the test products, of the reference ligand (4-(5,5-dimethyl-8-p-tolyl-5,6-dihydronaphth-2-yl)ethynyl)benzoic acid, of the 100% control (100 nM 4-[2-(5,5,8,8-tetramethyl-5,6,7,8-tetrahydro-2-naphthyl)propenyl]benzoic acid) and of the 0% control (500 nM 4-{(E)-3-[4-(4-tert-butylphenyl)-5,5,8,8-tetramethyl-5,6,7,8-tetrahydro-2-naphthyl]-3-oxopropenyl}benzoic acid) are added at a rate of 5 μl per well. The plates are then incubated for 18 hours at 37° C. and 7% CO2.
(§9) The culture medium is removed by turning over and 100 μl of a 1:1 PBS/luciferine mixture is added to each well. After 5 minutes, the plates are read using the luminescence detector.

For another test, the target named is T2, RAR beta (Homo sapiens, UniProt P10826).
T2 sequence (P10826 183-417 limits assumed): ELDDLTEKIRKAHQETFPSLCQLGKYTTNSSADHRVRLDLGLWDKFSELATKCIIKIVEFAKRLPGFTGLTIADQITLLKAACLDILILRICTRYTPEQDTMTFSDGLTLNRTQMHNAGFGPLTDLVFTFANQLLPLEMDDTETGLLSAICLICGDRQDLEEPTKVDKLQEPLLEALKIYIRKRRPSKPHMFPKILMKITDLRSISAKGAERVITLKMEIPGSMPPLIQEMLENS
As to the kind of experiment: Transactivation test, HeLa reporter cells (luciferase), RAR beta. As for the experimental part:
as §1, §2, §3, §4, §5, §6, §7, §8, §9

For the next test, the target named is T3, RAR gamma (Homo sapiens, UniProt P13631).
T3 sequence (P13631 185-419 limits assumed): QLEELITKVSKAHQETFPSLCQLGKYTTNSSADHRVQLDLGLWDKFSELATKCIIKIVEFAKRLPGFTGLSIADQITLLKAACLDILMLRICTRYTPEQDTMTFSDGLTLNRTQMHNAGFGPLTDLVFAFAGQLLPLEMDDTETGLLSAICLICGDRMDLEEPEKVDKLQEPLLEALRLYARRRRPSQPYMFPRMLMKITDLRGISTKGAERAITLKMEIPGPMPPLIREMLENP
The test can be described thus: Transactivation test, HeLa reporter cells (luciferase), RAR gamma. As for the experimental part:
as §1, §2, §3, §4, §5, §6, §7, §8, §9

The AC50 is the concentration giving half of the maximal activity seen. A higher AC50 goes with activity only at high concentration. Take `COCCOc1cc(C(O)C#Cc2ccc(C(=O)O)cc2)cc2c1C(C)(C)CCC2(C)C` (stereo not drawn) [Ex 1, 4-{3-Hydroxy-3-[4-(2-methoxyethoxy)-5,5,8,8-tetramethyl-5,6,7,8-tetrahydronaphth-2-yl]prop-1-ynyl}benzoic acid]: the Kd came to 60 nM at RAR alpha, 60 nM at RAR beta and 2 nM at RAR gamma. Also, the values for the AC50 on RAR alpha, on RAR beta and on RAR gamma were 400 nM, 45 nM and 2 nM, respectively.

On to `CCOCCOc1cc(C(O)C#Cc2ccc(C(=O)O)cc2)cc2c1C(C)(C)CCC2(C)C` (stereo not drawn) [Ex 2, 4-{3-Hydroxy-3-[4-(2-ethoxyethoxy)-5,5,8,8-tetramethyl-5,6,7,8-tetrahydronaphth-2-yl]-prop-1-ynyl}benzoic acid], for which the Kd at RAR alpha was 1000 nM; at RAR gamma it was 30 nM. Besides, the values for the AC50 on RAR alpha, on RAR beta and at RAR gamma were 900 nM, 500 nM and 50 nM, respectively.

In the case of `CCOCCOc1cc(C(O)C#Cc2ccc(C(=O)O)c(O)c2)cc2c1C(C)(C)CCC2(C)C` (stereo not drawn) [Ex 3, 4-{3-Hydroxy-3-[4-(2-ethoxyethoxy)-5,5,8,8-tetramethyl-5,6,7,8-tetrahydronaphth-2-yl]prop-1-ynyl}-2-hydroxybenzoic acid], the Kd at RAR alpha was determined as 30 nM; on RAR beta it was 120 nM; on RAR gamma, 1 nM. In addition, the AC50 on RAR alpha came out at 150 nM; on RAR beta, 100 nM; at RAR gamma it was 1 nM.

`CCOCCOc1cc([C@H](O)C#Cc2ccc(C(=O)O)cc2)cc2c1C(C)(C)CCC2(C)C` [Ex 4, 4-{3-Hydroxy-3-[4-(2-ethoxyethoxy)-5,5,8,8-tetramethyl-5,6,7,8-tetrahydronaphth-2-yl]-prop-1-ynyl}benzoic (S)-acid]: the Kd was found to be 120 nM on RAR alpha and 1 nM on RAR gamma. The figures for the AC50 on RAR alpha, on RAR beta and at RAR gamma were 800 nM, 200 nM and 1.2 nM, respectively.

With `CCOCCOc1cc([C@@H](O)C#Cc2ccc(C(=O)O)cc2)cc2c1C(C)(C)CCC2(C)C` [Ex 5, 4-{3-Hydroxy-3-[4-(2-ethoxyethoxy)-5,5,8,8-tetramethyl-5,6,7,8-tetrahydronaphth-2-yl]prop-1-ynyl}benzoic (R)-acid], the values for the Kd on RAR alpha and at RAR gamma were 120 nM and 1 nM, respectively. For the same compound, the AC50 on RAR alpha came out at 800 nM; on RAR beta, 200 nM; on RAR gamma, 1.8 nM.

The values above are taken from patent US8765805B2, “Ligand activators of the RAR receptors and pharmaceutical/cosmetic applications thereof” (Galderma Research & Development, priority 2003, dated 2014).
